Patent US6777422B2, “Substituted tetrahydroisoquinolines as C5a receptor modulators” (Neurogen Corp., priority 2002, dated 2004)

The compounds below were run against T1, human C5a receptor (Homo sapiens, UniProt P21730) (assay: C5a receptor mediated calcium mobilization assay (Example 20)). Conditions: differentiated U937 cells, read-out: Ca2+ (Ki in the standard assay of C5a receptor mediated calcium mobilization).
T1 construct: endogenous in cells; host or cells: U937 cells differentiated with 1 mM dibutyryl cAMP
T1 sequence (P21730 1-350): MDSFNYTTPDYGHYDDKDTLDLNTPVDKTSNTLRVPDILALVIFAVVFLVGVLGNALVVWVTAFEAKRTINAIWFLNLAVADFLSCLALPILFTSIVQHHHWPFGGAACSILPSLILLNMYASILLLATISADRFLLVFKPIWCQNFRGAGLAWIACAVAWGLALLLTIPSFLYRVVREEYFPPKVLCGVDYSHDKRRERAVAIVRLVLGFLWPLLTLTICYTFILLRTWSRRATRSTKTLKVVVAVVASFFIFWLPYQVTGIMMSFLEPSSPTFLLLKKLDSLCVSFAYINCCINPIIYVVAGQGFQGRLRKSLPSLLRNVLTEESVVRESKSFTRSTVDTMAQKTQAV
Type: cell-based
Method in brief: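 Differentiated U937 cells (dibutyryl cAMP, 48 h) loaded with Fluo-3 were pre-incubated 1 h with compound at 1 μM, then challenged with 0.3 nM (final) human recombinant C5a. Calcium response monitored by FLIPR fluorescence (Ex 480/Em 530 nm); antagonism defined as ≥2-fold decrease versus C5a alone.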

Ki [nM] | SMILES
< 1000 | C[C@@H](C(=O)N(CCc1ccc(O)cc1)Cc1ccccc1F)N1CCc2ccccc2[C@@H]1c1cccc2ccccc12 [Compound 118, (2S)-N-(2-fluorobenzyl)-N-[2-(4-hydroxyphenyl)ethyl]-2-[(1R)-1-(1-naphthyl)-3,4-dihydroisoquinolin-2(1H)-yl]propanamide]
< 1000 | C[C@@H](C(=O)N(CCc1c[nH]c2ccccc12)Cc1ccccc1F)N1CCc2ccccc2[C@@H]1c1cccc2ccccc12 [Compound 119, (2S)-N-(2-fluorobenzyl)-N-[2-(1H-indol-3-yl)ethyl]-2-[(1R)-1-(1-naphthyl)-3,4-dihydroisoquinolin-2(1H)-yl]propanamide]
< 1000 | COc1ncccc1CN(C(=O)[C@H](C)N1CCc2ccccc2[C@@H]1c1cccc2ccccc12)C1Cc2ccccc2C1 [Compound 121, (2S)-N-(indan-2-yl)-N-[(2-methoxypyridin-3-yl)methyl]-2-[(1R)-1-(1-naphthyl)-3,4-dihydroisoquinolin-2(1H)-yl]propanamide]
< 1000 | COc1ncccc1CN(Cc1ccccc1F)C(=O)[C@H](C)N1CCc2ccccc2[C@@H]1c1cccc2ccccc12 [Compound 122, (2S)-N-(2-fluorobenzyl)-N-[(2-methoxypyridin-3-yl)methyl]-2-[(1R)-1-(1-naphthyl)-3,4-dihydroisoquinolin-2(1H)-yl]propanamide]
< 1000 | COc1cccc(CN(Cc2ccccc2F)C(=O)[C@H](C)N2CCc3ccccc3[C@@H]2c2cccc3ccccc23)n1 [Compound 125, (2S)-N-(2-fluorobenzyl)-N-[(6-methoxypyridin-2-yl)methyl]-2-[(1R)-1-(1-naphthyl)-3,4-dihydroisoquinolin-2(1H)-yl]propanamide]
< 1000 | C[C@@H](C(=O)N(Cc1ncccc1F)C1Cc2ccccc2C1)N1CCc2ccccc2[C@@H]1c1cccc2ccccc12 [Compound 126, (2S)-N-(indan-2-yl)-N-[(3-fluoropyridin-2-yl)methyl]-2-[(1R)-1-(1-naphthyl)-3,4-dihydroisoquinolin-2(1H)-yl]propanamide]

Second part, the compound before the results:

SMILES | Ki [nM]
O=C(CN1CCc2cccc(Cl)c2C1c1c(F)cccc1Cl)N(Cc1ccccc1F)C1Cc2ccccc2C1 (stereo not drawn) [Compound 117, 2-[8-chloro-1-(2-chloro-6-fluorophenyl)-3,4-dihydroisoquinolin-2(1H)-yl]-N-(indan-2-yl)-N-(2-fluorobenzyl)acetamide] | < 1000
C[C@@H](C(=O)N(Cc1cccc(OC(F)F)c1F)C1Cc2ccccc2C1)N1CCc2ccccc2[C@@H]1c1ccccc1Cl [Compound 120, (2S)-2-[(1R)-1-(2-chlorophenyl)-3,4-dihydroisoquinolin-2(1H)-yl]-N-[3-(difluoromethoxy)-2-fluorobenzyl]-N-(indan-2-yl)propanamide] | < 1000
O=C(CN1CCc2ccccc2C1c1ccc(O)cc1)N(Cc1ccccc1F)C1Cc2ccccc2C1 (stereo not drawn) [Compound 123, N-(indan-2-yl)-N-(2-fluorobenzyl)-2-[1-(4-hydroxyphenyl)-3,4-dihydroisoquinolin-2(1H)-yl]acetamide] | < 1000
COc1cccc(CN(C(=O)[C@H](C)N2CCc3ccccc3[C@@H]2c2cccc3ccccc23)C2Cc3ccccc3C2)n1 [Compound 124, (2S)-N-(indan-2-yl)-N-[(6-methoxypyridin-2-yl)methyl]-2-[(1R)-1-(1-naphthyl)-3,4-dihydroisoquinolin-2(1H)-yl]propanamide] | < 1000
COc1cncc(CN(C(=O)[C@H](C)N2CCc3ccccc3[C@@H]2c2cccc3ccccc23)C2Cc3ccccc3C2)c1 [Compound 127, (2S)-N-(indan-2-yl)-N-[(5-methoxypyridin-3-yl)methyl]-2-[(1R)-1-(1-naphthyl)-3,4-dihydroisoquinolin-2(1H)-yl]propanamide] | < 1000

Same assay, conditions: differentiated U937 cells, unit inferred, read-out: Ca2+ (numeric value, C5a receptor mediated calcium mobilization)

Ki [nM] | SMILES
547 | Cc1ccccc1C1C(C)CCCN1CC(=O)N(Cc1ccccc1F)C1Cc2ccccc2C1 (stereo not drawn) [Compound 128, N-(2-Fluoro-benzyl)-N-indan-2-yl-2-(3-methyl-2-o-tolyl-piperidin-1-yl)-acetamide]
131 | Cc1ccccc1C1CCCCN1CC(=O)N(Cc1ccccc1F)C1Cc2ccccc2C1 (stereo not drawn) [Compound 129, N-(2-Fluoro-benzyl)-N-indan-2-yl-2-(2-o-tolyl-piperidin-1-yl)-acetamide]
405 | COc1ccccc1C1CCCCN1CC(=O)N(Cc1ccccc1F)C1Cc2ccccc2C1 (stereo not drawn) [Compound 130, N-(2-Fluoro-benzyl)-N-indan-2-yl-2-[2-(2-methoxy-phenyl)-piperidin-1-yl]-acetamide]
465 | CN(CC(=O)N(Cc1ccccc1F)C1Cc2ccccc2C1)C(c1ccccc1)c1ccccc1 [Compound 133, 2-(Benzhydryl-methyl-amino)-N-(2-fluoro-benzyl)-N-indan-2-yl-acetamide]
575 | CC1=C(C)C(c2ccccc2)N(CC(=O)N(Cc2ccccc2F)C2Cc3ccccc3C2)CC1 (stereo not drawn) [Compound 134, 2-(4,5-Dimethyl-6-phenyl-3,6-dihydro-2H-pyridin-1-yl)-N-(2-fluoro-benzyl)-N-indan-2-yl-acetamide]
193 | CC1=C(C)C(c2ccccc2C)N(CC(=O)N(Cc2ccccc2F)C2Cc3ccccc3C2)CC1 (stereo not drawn) [Compound 135, 2-(4,5-Dimethyl-6-o-tolyl-3,6-dihydro-2H-pyridin-1-yl)-N-(2-fluoro-benzyl)-N-indan-2-yl-acetamide]
39.9 | Cc1ccccc1C1c2ccsc2CCN1CC(=O)N(Cc1ccccc1F)C1Cc2ccccc2C1 (stereo not drawn) [Compound 136, N-(2-Fluoro-benzyl)-N-indan-2-yl-2-(4-o-tolyl-6,7-dihydro-4H-thieno[3,2-c]pyridin-5-yl)-acetamide]
